# According to patent US20210062367A1, “METHOD FOR PRODUCING LIBRARY FOR USE IN PREDICTION OF ACTION OF SUBSTANCE OF INTEREST ON LIVING BODY, AND METHOD FOR […] OF SUBSTANCE OF INTEREST ON LIVING BODY BASED ON CHANGE IN ACTION PARAMETER OR THE LIKE OF ZEBRAFISH” (SUNTORY HOLDINGS LIMITED, priority 2017, published 2021):
# Legend:
# zebrafish [1] = settings: modafinil given to zebrafish in bath; compared with ethanol; cited from earlier work
# zebrafish [2] = assay: Zebrafish behavioral parameter measurement (Danio Vision/Ethovision) with cluster analysis against library of Suvorexant and Imipramine; assay type: in vivo, MieKomachi 002 Line 8 dpf; settings: 8beta 10 μM; estimated from similarity to Suvorexant
# Procedure: 0.3×Danieau's solution (19.3 mM NaCl, 0.23 mM KCl, 0.23 mM MgSO4, 0.2 mM Ca(NO3)2, 1.7 mM HEPES, pH 7.2) is used as a water bath, and a 0.1% DMSO-containing water bath is used.
# Zebrafish is prepared by growing it under the following conditions to 8 dpf.
# Zebrafish: MieKomachi 002 Line 8 dpf
# For each substance of known action, the reagent in which the substance was dissolved in the water bath and adjusted at a concentration of 1 μM was prepared.
# (1) Add 1 ml of the water bath to each well of a 48-well plate. Transfer one zebrafish (8 dpf) per well thereto and adjust the temperature to 28° C. and maintain the temperature for from 30 minutes to 1 hour. […]
# (§1) The repetition of light and dark periods with cycled of a light period for 3 hours (period L1)—a dark period for 10 hours (period D)—a light period for 11 hours (period L2) is performed and the behavior of zebrafish is recorded for 24 hours. […]
# (§2) For each class of mobility states, the indicators DMF, IZF, DTZ, and TA are measured. […]
# (§3) (2) Store the measured behavioral parameters as raw data of the following forms. • Type of reagent (any of the reagents prepared in [Preparation of reagents for production of library] or control) • Mobility state (95 to 65 (high speed), 65 to 35 (moderate speed), or 35 to 05 (low speed)) • Repetition of light and dark periods (L1, D, or L2) • Indicator (DMF, IZF, DTZ, or TA) […]
# nfi13-6 = assay: Zebrafish oligo-DNA microarray gene expression with cluster analysis together with behavioral data (8beta vs library); assay type: in vivo, MieKomachi 002 Line 8 dpf; settings: 8beta 10 μM; nfi13-6 clusters with H-, M-, L-DMT D, L1, L2
# Procedure: (5) Subsequently, link the administration of the substance of known action and the change in expression levels of genes using microarray experiments.
# (§4) The microarray experiments can be performed using Zebrafish oligo-DNA micro array Ver.3.0 manufactured by Agilent Technologies, Inc. according to protocol.
# Based on array data obtained by this microarray experiment, the normalization of the data in the arrays is performed in the procedure described above using software in Gene Springs.
# (3) Link the administration of 8beta and the change in expression levels of genes using microarray experiments.
# The microarray experiments can be performed using zebrafish oligo-DNA micro array Ver.3.0 manufactured by Agilent Technologies, Inc. according to protocol.
# (§5) Based on array data obtained by this microarray experiment, the normalization of the data in the arrays is performed in the procedure described above using software in Gene Springs and data among arrays are normalized by a method using the Z score.
# Processing of statistically matching and analyzing the numerical data for Suvorexant and Imipramine recorded in the library and the numerical data with the administration of 8beta was conducted by the cluster analysis as follows. […]
# zebrafish [3] = assay: Zebrafish behavioral parameter measurement (Danio Vision/Ethovision) with cluster analysis against library of Diazepam and Haloperidol; assay type: in vivo, Zebrafish (Danio rerio), AB Line 6 dpf; settings: EGCG 0.003 mg/mL; estimated from similarity to Diazepam
# Procedure: 0.3×Danieau's solution (19.3 mM NaCl, 0.23 mM KCl, 0.23 mM MgSO4, 0.2 mM Ca(NO3)2, 1.7 mM HEPES, pH 7.2) is used as a water bath.
# Zebrafish is prepared by growing it under the following conditions to 6 dpf.
# For each substance of known action, the reagent in which the substance was dissolved in the water bath and adjusted at a concentration of 10 μM was prepared.
# (1) Add 1 ml of the water bath to each well of a 48-well plate. Transfer one zebrafish (6 dpf) per well thereto and adjust the temperature to 28° C. and maintain the temperature for from 30 minutes to 1 hour.
# (2) Remove the liquid in the 48-well plate with a pipette and then add 1 ml/well of any of the reagents. […]
# as §1, §2, §3
# per1b = assay: Zebrafish oligo-DNA microarray gene expression with cluster analysis together with behavioral data (EGCG vs library); assay type: in vivo, Zebrafish (Danio rerio), AB Line 6 dpf; settings: EGCG 0.003 mg/mL; per1b clusters with L-DMT D, L-DMT L1, L-DMT L2
# Procedure: This can be done by citing array data of Diazepam (GSE23157) and Haloperidol (GSE89780) from a public DB (Geo Datasets).
# Based on these array data, the normalization of the data in the arrays is performed in the procedure described above using software in Gene Springs and data among arrays are normalized by a method using the Z score.
# (3) Link the administration of EGCG and the change in expression levels of genes using microarray experiments.
# as §4, §5
# Processing of statistically matching and analyzing the numerical data for Diazepam and Haloperidol recorded in the library and the numerical data with the administration of EGCG was conducted by the cluster analysis as follows.
# In the result of cluster analysis including data of change in expression levels of genes, the action and mechanism of EGCG can be estimated based on the Gene Ontrogy (GO) information of the gene expression data by paying attention on data having high correlation between EGCG and Diazepam (data clustered in close relation). […]
compound,measurement,setting,value
NC(=O)C[S+]([O-])C(c1ccccc1)c1ccccc1 (centres unmarked) [modafinil],action suggested by behavioral analysis of zebrafish,zebrafish [1],antianxiety action
"C=C1C(=O)OC2C=C(C)CCC=C(C)CC(OC(=O)/C(C)=C/CO)C12 (stereo not drawn) [8beta, 8beta-(4′-hydroxytigloyloxy)costunolide]",action estimated from closely related drug in cluster analysis,zebrafish [2],sleep action
same,"gene expression data (nfi13-6), cluster analysis of change in expression levels",nfi13-6,change with correlation between 8beta and Suvorexant
"O=C(O[C@@H]1Cc2c(O)cc(O)cc2O[C@@H]1c1cc(O)c(O)c(O)c1)c1cc(O)c(O)c(O)c1 [EGCG, epigallocatechin gallate]",action estimated from closely related drug in cluster analysis,zebrafish [3],sedative action
same,"gene expression data (per1b), cluster analysis of change in expression levels",per1b,change with correlation between EGCG and Diazepam
